{
  "source": "patent US20260234180A1",
  "about": "“AMINO ACID DERIVATIVE, PREPARATION METHOD THEREFOR, AND PHARMACEUTICAL COMPOSITION FOR TREATING HEPATITIS, COMPRISING SAME” (priority 2021, published 2026)",
  "data": [
    {"tested_on": "HBV virus", "experiment": "HBV infection of HepG2-NTCP cells, Southern blot analysis", "assay_type": "cell-based, hepatitis B virus (HBV)", "details": "20 μM", "protocol": "Specifically, the HepG2-NTCP cell line was cultured on a 6-well plate, incubation was performed overnight, HBV inhibitors were treated at a concentration of 20 μM, and the positive control Myrcludex-B (MyrB) was treated at a concentration of 200 nM, followed by culture for 24 hours. After HBV infection into the cells to make HBV 3000 genome equivalent per ml/cell (Geq/cell), the cell culture medium was replaced (medium changing, MC) a day after the viral infection to remove the virus unattached to cell membranes. In order to measure an amount of virus that entered the cell, medium changing (MC) was performed once more 4 days after viral infection. 2 days after replacement, HBeAg ELISA analysis was performed using a supernatant, and Southern blot analysis was performed with cell pellets.\nFirst, the cell pellets were pipetted with 100 μl of HEPES lysis buffer (10 mM HEPES, 100 mM NaCl, 1 mM EDTA, 1% NP-40), placed on ice for 20 minutes, and then centrifuged with a centrifuge under the conditions at 4° C. and 13000 rpm. After transferring the supernatant only to the new microtube, 4.5 μl of nuclease buffer I (10 mM CaCl2), 12 mM MgCl2, DNase 10 units) was added to carry out a reaction at 37° C. for 2 hours, and 40 μl of 26% PEG solution was added, followed by a reaction on ice for 1 hour. After centrifuging with the centrifuge at 4° C. and 13000 rpm for 30 minutes, and the supernatant was removed cleanly. After releasing the pellets with 100 μl of nuclease buffer II (10 mM Tris, 8 mM CaCl2), 6 mM MgCl2), 287.5 μl of 0.5% SDS buffer (25 mM Tris, 10 mM EDTA, 0.5% SDS, 100 mM NaCl) was added, and 12.5 μl of 20 mg/ml proteinase K was added, followed by a reaction at 37° C. for 2 hours. 400 μl of phenol-chloroform-isoamyl alcohol was added, centrifugation was performed at room temperature at 13000 rpm after voltexing, the supernatant was transferred to a new tube, 40 μl of 3 M NaOAc was added, and 800 μl of 100% ethanol was added for inverting, followed by a reaction overnight at −20° C. After performing centrifugation at 4° C. and 13000 rpm for 30 minutes, 800 μl of 70% ethanol was added and mixed to the pellet obtained by removing the supernatant, centrifugation was performed at 4° C. and 13000 rpm for 10 minutes, and then the supernatant was discarded. The ethanol was dried for 5 minutes to leave only the HBV DNA pellets, and then the pellets were dissolved again in 15 μl of TE buffer (10 mM Tris, 1 mM EDTA). HBV DNA samples were loaded in 1% agarose gel, and electrophoresis was performed. It was then immersed in denature buffer (0.25 N NaOH, 1 M NaCl) for 30 minutes to denature dsDNA of HBV into ssDNA. The DNA in the gel was transferred to a Nylon membrane using a transfer buffer (0.4 M NaOH), the membrane was soaked with a 2×SSC buffer (sigma, cat #85639) for neutralization, followed by drying in air. The membrane was immersed in a church buffer (10% BSA, 0.5 M EDTA, 1 M NaPi, 20% SDS), and the radioisotopes were hybridized using a Mega prime kit (GE healthcare, RPN1607). After washing three times with washing buffer (2×SSC, 0.1% SDS), measurement was performed using radioisotope measurement equipment, and a relative replication rate (%) to the negative control group (Mock) was calculated and shown.", "values": [
      {"smiles": "CC(C)[C@H](NC(=O)CC[C@@H](C)[C@H]1CC[C@H]2[C@@H]3[C@@H](O)C[C@@H]4C[C@H](O)CC[C@]4(C)[C@H]3CC[C@]12C)C(=O)O", "note": "[Example 3, (S)-2-((R)-4-((3R,5S,7S,8R,9S,10S,13R,14S,17R)-3,7-dihydroxy-10,13-dimethyl-hexadecahydro-1H-cyclopenta[a]phenanthren-17-yl)pentanamido)-3-methylbutanoic acid]", "amount of HBeAg DNA detected compared to the negative control group (Mock)": "relatively less amount"},
      {"smiles": "CC[C@@H](C)[C@H](NC(=O)CC[C@@H](C)[C@H]1CC[C@H]2[C@@H]3CC[C@@H]4C[C@H](O)CC[C@]4(C)[C@H]3C[C@H](O)[C@]12C)C(=O)O", "note": "[Example 10, (2S,3R)-2-((R)-4-((3R,5R,8R,9S,10S,12S,13R,14S,17R)-3,12-dihydroxy-10,13-dimethyl-hexadecahydro-1H-cyclopenta[a]phenanthren-17-yl)pentanamido)-3-methylpentanoic acid]", "amount of HBeAg DNA detected compared to the negative control group (Mock)": "relatively less amount"},
      {"smiles": "CC[C@@H](C)[C@H](NC(=O)CC[C@@H](C)[C@H]1CC[C@H]2[C@@H]3[C@@H](O)C[C@@H]4C[C@H](O)CC[C@]4(C)[C@H]3CC[C@]12C)C(=O)O", "note": "[Example 2, (2S,3R)-2-((R)-4-((3R,5S,7S,8R,9S,10S,13R,14S,17R)-3,7-dihydroxy-10,13-dimethyl-hexadecahydro-1H-cyclopenta[a]phenanthren-17-yl)pentanamido)-3-methylpentanoic acid]", "amount of HBeAg DNA detected compared to the negative control group (Mock)": "relatively less amount"},
      {"smiles": "CC[C@@H](C)[C@H](NC(=O)CC[C@@H](C)[C@H]1CC[C@H]2[C@@H]3CC[C@@H]4C[C@H](O)CC[C@]4(C)[C@H]3CC[C@]12C)C(=O)O", "note": "[Example 1, (2S,3R)-2-((R)-4-((3R,5R,8R,9S,10S,13R,14S,17R)-3-hydroxy-10,13-dimethyl-hexadecahydro-1H-cyclopenta[a]phenanthren-17-yl)pentanamido)-3-methylpentanoic acid]", "amount of HBeAg DNA detected compared to the negative control group (Mock)": "relatively less amount"},
      {"smiles": "CC(C)[C@H](NC(=O)CC[C@@H](C)[C@H]1CC[C@H]2[C@@H]3CC[C@@H]4C[C@H](O)CC[C@]4(C)[C@H]3CC[C@]12C)C(=O)O", "note": "[Example 44, (S)-2-((R)-4-((3R,5R,8R,9S,10S,13R,14S,17R)-3-hydroxy-10,13-dimethyl-hexadecahydro-1H-cyclopenta[a]phenanthren-17-yl)pentanamido)-3-methylbutanoic acid]", "amount of HBeAg DNA detected compared to the negative control group (Mock)": "relatively less amount"}
    ]}
  ]
}
